Source: ChEMBL document CHEMBL1139134, “Synthesis and cytotoxic activity of 17-carboxylic acid modified 23-hydroxy betulinic acid ester derivatives” (Bioorg Med Chem Lett, 2007)

Key:
C6 = assay: Cytotoxicity against […] by MTT assay
A549 = assay: Cytotoxicity against human A549 cells by MTT assay; format: functional, cell-based
B16 [1] = assay: Cytotoxicity against mouse B16 cells by MTT assay; format: functional, cell-based
[2] = Cytotoxicity against human SF763 cells by MTT assay; format: functional, cell-based
Bel-7402 = assay: Cytotoxicity against human BEL-7402 cells by MTT assay; format: functional, cell-based
B16 [3] = assay: Antitumor activity in B16 cells xenografted ICR mouse assessed as tumor growth inhibition at 25 mg/kg, iv after 11 days; format: functional; conditions: B16, 264 h
B16 [4] = assay: Antitumor activity in B16 cells xenografted ICR mouse assessed as tumor weight at 25 mg/kg, iv after 11 days; format: functional
B16 [5] = assay: Antitumor activity in B16 cells xenografted ICR mouse assessed as tumor growth inhibition at 20 mg/kg, ip after 11 days; format: functional; conditions: 264 h, route intraperitoneal
H22 [6] = assay: Antitumor activity in H22 cells xenografted ICR mouse assessed as tumor weight at 20 mg/kg, ip after 4 days; format: functional; conditions: route intraperitoneal
B16 [7] = assay: Antitumor activity in B16 cells xenografted ICR mouse assessed as tumor weight at 20 mg/kg, ip after 11 days; format: functional; conditions: route intraperitoneal
H22 [8] = assay: Antitumor activity in H22 cells xenografted ICR mouse assessed as tumor growth inhibition at 20 mg/kg, ip after 4 days; format: functional; conditions: 96 h, route intraperitoneal
H22 [9] = assay: Antitumor activity in H22 cells xenografted ICR mouse assessed as tumor growth inhibition at 30 mg/kg, iv after 4 days; conditions: 96 h, read-out: Inhibition

Row | SMILES | IC50 (C6) [µM] | IC50 (A549) [µM] | IC50 (B16 [1]) [µM] | IC50 [2] [µM] | IC50 (Bel-7402) [µM] | inhibition in vivo at 25 mg/kg (B16 [3]) [%] | Activity (B16 [4]) [g] | inhibition in vivo at 20 mg/kg (B16 [5]) [%] | Activity (H22 [6]) [g] | Activity (B16 [7]) [g] | inhibition in vivo at 20 mg/kg (H22 [8]) [%] | inhibition in vivo at 30 mg/kg (H22 [9]) [%]
1 | C=C(C)[C@@H]1CC[C@]2(C(=O)OCC#CC)CC[C@]3(C)[C@H](CC[C@@H]4[C@@]5(C)CC[C@H](O)[C@@](C)(CO)[C@@H]5CC[C@]43C)[C@@H]12 | 75.9 | 81.1 | 63.1 | 64.3 | 53 |  |  |  |  |  |  | 
2 | C=C(C)[C@@H]1CC[C@]2(C(=O)O)CC[C@]3(C)[C@H](CC[C@@H]4[C@@]5(C)CC[C@H](O)C(C)(C)[C@@H]5CC[C@]43C)[C@@H]12 [BETULINIC ACID] | 90.7 | 97.5 | 53.5 | 92.1 | 43.4 |  |  |  |  |  |  | 
3 | O=c1[nH]cc(F)c(=O)[nH]1 [FLUOROURACIL] |  |  |  |  |  | 72.4 | 0.56 |  |  |  |  | 
4 | C=C(C)[C@@H]1CC[C@]2(C(=O)O)CC[C@]3(C)[C@H](CC[C@@H]4[C@@]5(C)CC[C@H](O)[C@@](C)(CO)[C@@H]5CC[C@]43C)[C@@H]12 | 99.5 | 87.6 | 83 | 105 | 97.3 |  |  | 13.3 | 1.42 | 1.76 | 10.1 | 
5 | O=P1(N(CCCl)CCCl)NCCCO1 (configuration not stated) [CYCLOPHOSPHAMIDE ANHYDROUS] |  |  |  |  |  |  |  |  |  |  |  | 56.3
